Results reported in patent US20190381127A1, “COMBINATION THERAPY WITH A6, CHEMOTHERAPEUTIC AGENTS, RADIATION THERAPY, OR A COMBINATION THEREOF FOR THE TREATMENT OF CANCER” (Splash Pharmaceuticals, Inc., priority 2016, published 2019).

Legend:
[1] = system: persistent or recurrent epithelial ovarian, fallopian tube, or primary peritoneal carcinoma; test: Phase 2 trial, persistent or recurrent ovarian cancer
Method: Persistent or Recurrent Ovarian Cancer: A Phase 2 trial was conducted in patients with persistent or recurrent epithelial ovarian, fallopian tube, or primary peritoneal carcinoma to evaluate A6 in a patient population with a disease burden greater than that presented in the previously described MOR trial. Patients had received one prior platinum-based chemotherapeutic regimen and were allowed to have received one additional cytotoxic regimen for the management of recurrent or persistent disease. Patients received a 150 mg twice daily subcutaneous dose of A6 and continued on treatment until disease progression or unacceptable toxicity. Response criteria were as defined by RECIST. Primary measures of clinical efficacy were objective tumor response and PFS at 6 months compared to a historical Gynecologic Oncology Group (GOG) dataset based on a similar population of patients.

A2780 cells = test: CCK-8 cytotoxicity, A6 plus DDP; type: cell-based, human; details: A6 1, 10 or 100 μM 1 h, then 1 h A6 plus DDP; 10% FBS
Method: Study Conditions. Drugs: DDP (3.33 mM stock) and A6 (109.8 mM stock); Drug exposure time: 1 hour; Cell line: A2780 and its DDP-resistant subline A2780/CP; Media: RPMI 1640 plus 10% FBS containing 1 mM penicillin/streptomycin; Cytotoxicity Assays: CCK-8 (Cell Counting Kit 8—Dojindo Molecular Technologies).
Tissue culture plates containing 96-well plates were seeded with 4000 cells in 100 μl of media per well. The wells on rows A-D were seeded with A2780 cells, while the wells on rows E-H were seeded with A2780/CP cells. The cells were allowed to attach overnight in a 37° C. in 5% CO2 incubator. Approximately 24 h later medium was removed by aspiration and the cells were exposed to 0, 1, 10 or 100 μM A6 peptide in 100 μl. After 1 h, increasing concentrations of DDP were added to triplicate wells in 100 μl medium. Following a 1 h exposure to the combination of A6 and DDP, the drugs were removed by aspiration. The cells were then allowed to grow for 96 h following which the plates were assayed for relative cell growth with the CCK-8 assay.
(§1) CCK-8 assay. Five μl of CCK-8 stain was added to each well and the plate was incubated at 37° C. incubator for 4 h. The plate was read with a microplate reader at a wavelength of 450 nm.

[2] = system: HEY (DDP sensitive) cells; test: CCK-8 cytotoxicity of DDP/PTX with or without A6; type: cell-based; details: 100 μM A6; 72 hours; 10% FBS
B16F10-DsRed cells = test: B16F10-DsRed Cell Lung Metastasis Model; type: in vivo, C57BL/6 mice; details: for tumor burden in the lungs: A6 200 mg/Kg SC QD, day 12
Method: B16F10-DsRed cells were harvested from cells culture. 1×10^6 cells/200 μl were inoculated into DPBS/mouse via bilateral tail vein in 48 female C57BL/6 mice (Charles River).
Mice were randomized into six groups: Grp1 no treatment, Grp2 PTX (10 mg/Kg, IP on days 1 and 8), Grp3 DDP (4 mg/Kg, IP, day 1, 4 and 8), Grp4 A6 (200 mg/Kg, SC, QD), Grp5 A6 plus PTX, Grp6 A6 plus DDP. Animals were weighed before dosing and then twice a week.
Dosing: A6 dosing started immediately after cell inoculation and consecutively for 11 days; DDP/PTX dosing started immediately after inoculation and then on days as above. The study was ended on day 12, and the lungs were harvested to determine metastatic burden.

[3] = system: human breast and ovarian cancer cell lines; test: Boyden chamber chemotaxis; type: cell-based; details: responsive cell lines; read-out: IC50 for the inhibition of chemotaxis
Text: A6 had no effect on the migration of CD44-negative A2780 cells. A6 was also shown to interfere with the binding of only one (DF1485) of the four anti-CD44 antibodies tested.

2008 cells = test: CCK-8 cytotoxicity, A6 plus DDP; type: cell-based, human; details: A6 1, 10 or 100 μM 1 h, then 1 h A6 plus DDP; 10% FBS
Method: Conditions: Drugs: DDP (3.33 mM stock) and A6 (109.8 mM stock); Drug exposure time: 1 hour ; Cell line: 2008 and its DDP-resistant subline 2008/C31*5.25; Media: RPMI 1640 plus 10% FBS containing 1 mM penicillin/streptomycin; Cytotoxicity Assays: CCK-8 (Cell Counting Kit 8—Dojindo Molecular Technologies).
Tissue culture plates containing 96-well plates were seeded with 3000 cells in 100 μl of media per well. The wells on rows A-D were seeded with 2008 cells, while the wells on rows E-H were seeded with 2008/C13*5.25 cells. The cells were allowed to attach overnight in a 37° C. in 5% CO2 incubator. Approximately 24 h later medium was removed by aspiration and the cells were exposed to 0, 1, 10 or 100 μM A6 peptide in 100 μl. After 1 h, increasing concentrations of DDP were added to triplicate wells in 100 μl medium. Following a 1 h exposure to the combination of A6 and DDP, the drugs were removed by aspiration. The cells were then allowed to grow for 96 h following which the plates were assayed for relative cell growth with the CCK-8 assay.
as §1
(§2) The assay was performed using triplicate wells for each DDP concentration. […]

IGROV-1/CP cells = test: CCK-8 cytotoxicity, A6 plus DDP; type: cell-based, human; details: A6 1, 10 or 100 μM 1 h, then 1 h A6 plus DDP
Method: Study Conditions. Drugs: […] Drug exposure time: 1 hour; Cell line: IGROV-1 and its DDP-resistant subline IGROV-1/CP; Media: RPMI 1640 plus 10% FBS containing 1 mM penicillin/streptomycin; Cytotoxicity Assays: CCK-8 (Cell Counting Kit 8—Dojindo Molecular Technologies). Tissue culture plates containing 96-well plates were seeded with 4000 cells in 100 μl of media per well. The wells on rows A-D were seeded with IGROV-1 cells, while the wells on rows E-H were seeded with IGROV-1/CP cells. […] After 1 h, increasing concentrations of DDP were added to triplicate wells in […] medium. […] The cells were then allowed to grow for 96 h following which the plates were assayed for relative cell growth with the CCK-8 assay. CCK-8 assay. […] of CCK-8 stain was added to each well and the plate was incubated at 37° C. incubator for 4 h. The plate was read with a microplate reader at a wavelength of 450 nm. (See FIGS. 7A-7D and FIG. 8). The assay was performed using triplicate wells for each DDP concentration. The data in the tables below is the optical density in the well which is a function of the number of live cells remaining at the end of the 96 h growth period.

[4] = system: endometrial cancer with metastases to lymph nodes and lungs; test: Compassionate use, endometrial cancer patient; type: in vivo, human
Method: A second compassionate use patient was administered A6. The patient was diagnosed with endometrial cancer with metastases to lymph nodes and lungs. The patient underwent a hysterectomy followed by cisplatin and paclitaxel regimen. The patient started A6 1.5 mg/kg/day and continued on this regimen for 2 years with intermittent radiation therapy to the mediastinum to a total dose of 5,000 cGy. […] A6 increased to 2.0 mg/kg/day.

[5] = system: ZAP-70pos B-cell lymphocytes isolated from individual patients; test: CLL xenograft model; type: in vivo, immune-deficient mice; details: vs vehicle control
[6] = system: Mat B-111 syngeneic mammary carcinoma cells; test: Syngeneic mammary carcinoma model; parameters: species or system Fisher rats; details: rat, in vivo
Method: (§3) Mammary: The effects of A6 in mammary tumor and metastasis models were investigated. […] The effect of A6 in Fisher rats inoculated with Mat B-111 syngeneic mammary carcinoma cells was evaluated.

[7] = system: CD44-negative A2780 cells; test: Boyden chamber migration; type: cell-based, human
IGROV-1 cells = test: CCK-8 cytotoxicity, A6 plus DDP; type: cell-based, human; details: A6 1, 10 or 100 μM 1 h, then 1 h A6 plus DDP
Method: Drugs: DDP (3.33 mM stock) and A6 (109.8 mM stock); Drug exposure time: 1 hour; Cell line: IGROV-1 and its DDP-resistant subline IGROV-1/CP; Media: RPMI 1640 plus 10% FBS containing 1 mM penicillin/streptomycin; Cytotoxicity Assays: CCK-8 (Cell Counting Kit 8—Dojindo Molecular Technologies).
Tissue culture plates containing 96-well plates were seeded with 4000 cells in 100 μl of media per well. The wells on rows A-D were seeded with IGROV-1 cells, while the wells on rows E-H were seeded with IGROV-1/CP cells. The cells were allowed to attach overnight in a 37° C. in 5% CO2 incubator. Approximately 24 h later medium was removed by aspiration and the cells were exposed to 0, 1, 10 or 100 μM A6 peptide in 100 μl. After 1 h, increasing concentrations of DDP were added to triplicate wells in 100 pa medium. Following a 1 h exposure to the combination of A6 and DDP, the drugs were removed by aspiration. The cells were then allowed to grow for 96 h following which the plates were assayed for relative cell growth with the CCK-8 assay.
CCK-8 assay. Five pi of CCK-8 stain was added to each well and the plate was incubated at 37° C. incubator for 4 h. The plate was read with a microplate reader at a wavelength of 450 nm.
as §2

[8] = system: MDA-MB-231 human mammary carcinoma xenografts; test: Mammary carcinoma xenograft model; parameters: species or system BALB/c (nu/nu) mice; details: mouse, in vivo
Method: as §3

[9] = 150 mg twice daily subcutaneous

Substance: Ac-KPSSPPEE-NH2 [A6, Ac-KPSSPPEE-NH2]
- evaluable patients achieving stable disease [1, 9]: 36%
- patients progression free for at least 6 months [1, 9]: 6.5%
- objective tumor response ([1]; 150 mg twice daily subcutaneous, 31 eligible patients): no responses were observed
- tolerability ([1]; in vivo): well tolerated
- modulation of sensitivity to DDP (A2780 cells): failed to modulate the sensitivity
- sensitivity of cells to cisplatin [2]: did not affect sensitivity
- sensitivity of cells to paclitaxel [2]: did not affect sensitivity
- tumor burden in the lungs (B16F10-DsRed cells; in the presence or absence of cisplatin): not significantly reduced
- tumor burden in the lungs (B16F10-DsRed cells; in the presence or absence of paclitaxel, 200 mg/kg): not significantly reduce
- antimetastatic activity of cisplatin or paclitaxel on addition of A6 (B16F10-DsRed cells; mouse, in vivo): did not increase antimetastatic activity
- IC50 [3]: 0.01 to 0.1 µM
- modulation of sensitivity to DDP (2008 cells): failed to modulate the sensitivity
- modulation of sensitivity to DDP (IGROV-1/CP cells): failed to modulate the sensitivity
- clinical outcome ([4]; 10+ years of biannual testing): no evidence of disease
- disease status ([4]; A6 1.5 mg/kg/day for 2 years with intermittent radiation therapy): Stable disease
- CA-125 ([4]; after A6 dose reduced to 0.25-0.5 mg/kg/day, increased from 25): 71 U/ml
- CA-125 ([4]; after A6 increased to 2.0 mg/kg/day): 22 U/ml
- CA-125, subsequent follow up ([4]; subsequent follow up): below 25 U/ml
- reduction in CLL burden [5]: up to 90%
- lymph node metastasis [6]: markedly suppressed
- effect on migration [7]: no effect
- modulation of sensitivity to DDP (IGROV-1 cells): failed to modulate the sensitivity
- metastasis [8]: An inhibition of metastasis was noted
